ChEMBL document CHEMBL3734726, “An abietane diterpene from Salvia cuspidata and some new derivatives are active against Trypanosoma cruzi” (Bioorg Med Chem Lett, 2015)
Values after ≈ are worked out from the molar mass of the structure shown. Active and inactive are the calls of the source. The rule behind the calls is not given here.

Columns and labels:
Trypanosoma cruzi [1] = test: Antitrypanosomal activity against epimastigote stage of Trypanosoma cruzi Dm28c assessed as parasite viability at 1 ug/ml after 24 hrs by eosin exclusion based hemocytometry; assay type: functional
Trypanosoma cruzi [2] = test: Antitrypanosomal activity against epimastigote stage of Trypanosoma cruzi Dm28c assessed as parasite viability at 2 ug/ml after 24 hrs by eosin exclusion based hemocytometry; assay type: functional
Trypanosoma cruzi [3] = test: Antitrypanosomal activity against epimastigote stage of Trypanosoma cruzi Dm28c assessed as parasite viability at 5 ug/ml after 24 hrs by eosin exclusion based hemocytometry; assay type: functional
Trypanosoma cruzi [4] = test: Antitrypanosomal activity against epimastigote stage of Trypanosoma cruzi Dm28c assessed as parasite viability at 10 ug/ml after 24 hrs by eosin exclusion based hemocytometry; assay type: functional
[5] = Cytotoxicity against african green monkey Vero cells assessed as cell viability at 1 ug/ml after 24 hrs by eosin staining based microscopy; settings: chlorocebus sabaeus, read-out: Activity
[6] = Cytotoxicity against african green monkey Vero cells assessed as cell viability at 2 ug/ml after 24 hrs by eosin staining based microscopy; settings: chlorocebus sabaeus, read-out: Activity
[7] = Cytotoxicity against african green monkey Vero cells assessed as cell viability at 5 ug/ml after 24 hrs by eosin staining based microscopy; settings: chlorocebus sabaeus, read-out: Activity
[8] = Cytotoxicity against african green monkey Vero cells assessed as cell viability at 10 ug/ml after 24 hrs by eosin staining based microscopy; settings: chlorocebus sabaeus, read-out: Activity
Trypanosoma cruzi [9] = test: Antitrypanosomal activity against epimastigote stage of Trypanosoma cruzi Dm28c assessed as reduction in parasite viability at after 24 hrs by eosin exclusion based hemocytometry; assay type: functional, organism-based
Trypanosoma cruzi [10] = test: Trypanocidal activity against epimastigote stage of Trypanosoma cruzi Dm28c assessed as induction of vacuolization at 5 ug/ml after 48 hrs by lead citrate staining based microscopy; assay type: functional, organism-based

| Compound | Parasite viability (Trypanosoma cruzi [1]) [%] | Parasite viability (Trypanosoma cruzi [2]) [%] | Parasite viability (Trypanosoma cruzi [3]) [%] | Parasite viability (Trypanosoma cruzi [4]) [%] | viability at 24 h, 1 ug/ml [5] [%] | viability at 24 h, 2 ug/ml [6] [%] | viability at 24 h, 5 ug/ml [7] [%] | viability at 24 h, 10 ug/ml [8] [%] | IC50 (Trypanosoma cruzi [9]) [µg/mL] | Activity (Trypanosoma cruzi [10]) |
| --- | --- | --- | --- | --- | --- | --- | --- | --- | --- | --- |
| C=CCOC1=C(C(C)C)C(=O)C2=C(C1=O)[C@]13CCC[C@](C)(C(=O)OC1)[C@@H]3C=C2 | 85.5 | 65.5 | 29.5 | 18.3 | 99.8 | 99.6 | 99.1 | 85.5 | – | – |
| CC(C)C1=C(O[Si](C)(C)C)C(=O)C2=C(C=C[C@@H]3[C@]24CCC[C@]3(C)C(=O)OC4)C1=O | 85.5 | 49.5 | 29.5 | 15.3 | 99.7 | 99.6 | 99.1 | 83.6 | 2 (≈ 4.82 µM) | – |
| CC(=O)OC1=C(C(C)C)C(=O)C2=C(C1=O)[C@]13CCC[C@](C)(C(=O)OC1)[C@@H]3C=C2 | 99.2 | 89.5 | 39.5 | 16.3 | 99.8 | 99.7 | 99.2 | 92.4 | – | – |
| CC(C)C1=C(O)C(=O)C2=C(C=C[C@@H]3[C@]24CCC[C@]3(C)C(=O)OC4)C1=O | 99.2 | 76.4 | 49.7 | 16.3 | 99.2 | 99.5 | 98.8 | 88.4 | 5 (≈ 14.6 µM) | Active |
